Assay results published in paper PMC8534029 (Cells, 2021).

Target: T1, human DOR (T7-tagged, HEK293 cells) (Homo sapiens, UniProt P41143)
T1 construct: gene OPRD1
Test: CellKey impedance assay, agonist
Type: cell-based
Details: morphine up to 10^−5 M, no OT, partial agonist, EC50 n.d.

T1 sequence (P41143 whole entry, looked up): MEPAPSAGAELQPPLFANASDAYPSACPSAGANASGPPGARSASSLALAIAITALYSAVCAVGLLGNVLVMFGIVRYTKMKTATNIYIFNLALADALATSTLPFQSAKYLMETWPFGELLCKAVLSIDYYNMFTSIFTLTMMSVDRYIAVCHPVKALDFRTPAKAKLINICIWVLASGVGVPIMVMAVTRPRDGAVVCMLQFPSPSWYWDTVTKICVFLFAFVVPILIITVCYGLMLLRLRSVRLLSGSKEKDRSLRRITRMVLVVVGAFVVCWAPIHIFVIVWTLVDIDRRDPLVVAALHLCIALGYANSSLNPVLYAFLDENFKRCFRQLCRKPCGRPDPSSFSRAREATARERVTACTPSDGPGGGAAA

CN1CC[C@]23c4c5ccc(O)c4O[C@H]2[C@@H](O)C=C[C@H]3[C@H]1C5 [morphine]
maximum response (% of SNC80 Emax): 50.6 ± 7.01%
